Activity calls are given as the source filed them. No stated cut-off is given here; in the data, actives have a measured IC50 and inactives only a lower limit.
target: Envelope glycoprotein gp160 (Human immunodeficiency virus 1, UniProt Q6QLK5); assay: cell-free HIV fusion peptide-binding blockers – biochemical, uHTS, fluorescence dequenching, […] (AID 1986)
Sequence (Q6QLK5 whole entry, the tested form may be a part): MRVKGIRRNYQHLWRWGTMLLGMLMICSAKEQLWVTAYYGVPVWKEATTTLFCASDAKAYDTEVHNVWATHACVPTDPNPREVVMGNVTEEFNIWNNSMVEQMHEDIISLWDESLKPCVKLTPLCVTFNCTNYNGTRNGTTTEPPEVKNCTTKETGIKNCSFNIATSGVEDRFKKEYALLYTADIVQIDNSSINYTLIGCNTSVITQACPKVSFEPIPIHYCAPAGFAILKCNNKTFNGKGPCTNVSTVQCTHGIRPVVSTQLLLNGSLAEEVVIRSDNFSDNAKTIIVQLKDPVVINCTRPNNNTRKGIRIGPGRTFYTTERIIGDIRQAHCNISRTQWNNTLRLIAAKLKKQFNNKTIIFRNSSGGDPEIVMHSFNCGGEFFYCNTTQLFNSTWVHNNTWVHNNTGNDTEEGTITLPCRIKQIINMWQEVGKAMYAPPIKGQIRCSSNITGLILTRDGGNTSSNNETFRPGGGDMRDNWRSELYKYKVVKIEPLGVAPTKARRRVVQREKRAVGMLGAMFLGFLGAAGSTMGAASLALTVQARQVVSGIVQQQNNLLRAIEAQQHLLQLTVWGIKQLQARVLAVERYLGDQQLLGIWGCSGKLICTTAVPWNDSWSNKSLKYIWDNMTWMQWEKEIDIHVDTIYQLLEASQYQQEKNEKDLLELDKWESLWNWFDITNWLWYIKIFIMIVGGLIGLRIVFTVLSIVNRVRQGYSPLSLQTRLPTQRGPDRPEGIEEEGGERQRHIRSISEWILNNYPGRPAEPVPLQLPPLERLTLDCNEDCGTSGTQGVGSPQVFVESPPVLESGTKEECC

SMILES	IC50
Cc1ccc(NC(S)=NNc2ccc([N+](=O)[O-])cc2S(=O)(=O)Nc2ccccc2C(=O)O)cc1C	7.4 µM (active)
CC(C)CS(=O)(=O)C1=NN2C(=N)/C(=C\c3ccc(OC(=O)c4ccco4)cc3)C(=O)N=C2S1	12.8 µM (active)
N#C/C(=C\c1ccc(O)c([N+](=O)[O-])c1)c1nc2ccccc2s1	25.2 µM (active)
O=C(O)/C(CC(=O)c1ccc(Cl)cc1)=N/Nc1ccc([N+](=O)[O-])cc1[N+](=O)[O-]	20.8 µM (active)
